{"source": "patent US20150105252A1", "about": "“SUBSTITUTED PYRAZOLES AS HERBICIDES” (E I DU PONT DE NEMOURS AND COMPANY, priority 2013, published 2015)", "key": {"[1]": {"tested_on": "sedge, umbrella", "assay": "Test B flood", "assay_type": "in vivo, Cyperus difformis", "settings": "250 g ai/ha, visual rating on 0 to 100 scale (0 no effect, 100 complete control), 13 to 15 days", "method_in_brief": "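2-leaf plants; pots flooded 3 cm over soil; compound added to paddy water, depth kept constant. Greenhouse 13–15 d. Visual rating vs controls, 0–100 scale (100 = complete control); dash = no result.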"}, "[2]": {"tested_on": "oat, wild", "assay": "Test C postemergence", "assay_type": "in vivo, Avena fatua", "method_in_brief": "(§1)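 In this greenhouse assay, seeded soil (loam plus sand) or emerged seedlings in peat-vermiculite medium were treated with formulated compound. Roughly two weeks later (13–15 days), each species was scored visually relative to controls, from 0 for no effect to 100 for complete control.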"}, "[3]": {"tested_on": "pigweed", "assay": "Test C postemergence", "assay_type": "in vivo, Amaranthus retroflexus", "settings": "postemergence", "method_in_brief": "as §1"}, "[4]": {"tested_on": "morningglory", "assay": "Test A preemergence", "assay_type": "in vivo, Ipomoea spp.", "settings": "preemergence, 125 g ai/ha, visual injury approx. 10 days after treatment", "method_in_brief": "(§2)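 Visual injury ratings, 0 = no effect to 100 = complete control, taken about 10 days after treatment against untreated controls. Test chemicals, in a non-phytotoxic surfactant-containing solvent, were sprayed onto soil preemergence or onto one- to two-leaf plants (2–10 cm) postemergence, in loam–sand soil under greenhouse conditions.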"}, "[5]": {"tested_on": "soybean", "assay": "Test C postemergence", "assay_type": "in vivo, Glycine max", "settings": "postemergence", "method_in_brief": "as §1"}, "[6]": {"tested_on": "pigweed", "assay": "Test A postemergence", "assay_type": "in vivo, Amaranthus retroflexus", "settings": "Postemergence", "method_in_brief": "as §2"}, "[7]": {"tested_on": "wheat", "assay": "Test C preemergence", "assay_type": "in vivo, Triticum aestivum", "method_in_brief": "as §1"}, "[8]": {"tested_on": "ryegrass, Italian", "assay": "Test C preemergence", "assay_type": "in vivo, Lolium multiflorum", "method_in_brief": "as §1"}, "[9]": {"tested_on": "lambsquarters", "assay": "Test C postemergence", "assay_type": "in vivo, Chenopodium album", "method_in_brief": "as §1"}, "[10]": {"tested_on": "ryegrass, Italian", "assay": "Test C postemergence", "assay_type": "in vivo, Lolium multiflorum", "settings": "postemergence", "method_in_brief": "as §1"}, "[11]": {"tested_on": "ragweed", "assay": "Test C preemergence", "assay_type": "in vivo, Ambrosia elation", "method_in_brief": "as §1"}, "[12]": {"tested_on": "crabgrass, large", "assay": "Test A postemergence", "assay_type": "in vivo, Digitaria sanguinalis", "settings": "Postemergence", "method_in_brief": "as §2"}, "[13]": {"tested_on": "corn", "assay": "Test A preemergence", "assay_type": "in vivo, Zea mays", "settings": "preemergence", "method_in_brief": "as §2"}, "[14]": {"settings": "Postemergence, 31 g ai/ha, visually evaluated after 13 to 15 days"}, "[15]": {"settings": "postemergence, 62 g ai/ha, scale 0 to 100"}, "[16]": {"settings": "postemergence, 250 g ai/ha, scale 0 to 100 (0 no effect, 100 complete control)"}, "[17]": {"settings": "postemergence, 125 g ai/ha, scale 0 to 100, 0 no effect, 100 complete control"}, "[18]": {"settings": "250 g ai/ha, scale 0 to 100 (0 no effect, 100 complete control)"}, "[19]": {"settings": "125 g ai/ha, scale 0 to 100, 0 no effect, 100 complete control"}, "[20]": {"settings": "125 g ai/ha, 0 to 100 scale, 0 no effect, 100 complete control"}, "[21]": {"settings": "500 g ai/ha, 0 to 100 scale (0 no effect, 100 complete control)"}, "[22]": {"settings": "Preemergence, rate head not shown (block before 16 g ai/ha), scale 0 to 100"}, "[23]": {"settings": "preemergence, 62 g ai/ha, scale 0 to 100 (0 no effect, 100 complete control), 13 to 15 days"}, "[24]": {"settings": "preemergence, 125 g ai/ha, 13 to 15 days, scale 0 to 100, 0 = no effect, 100 = complete control"}, "[25]": {"settings": "preemergence, 250 g ai/ha, scale 0 to 100, 0 is no effect, 100 is complete control"}}, "data": [{"molecule": "CCc1cc(C(=O)NCC(F)(F)F)nn1Cc1ccnc(Br)c1", "note": "[Compound 224]", "values": [{"measurement": "Plant response rating, Sedge, Umbrella", "setting": "[1]", "result": 90}, {"measurement": "Plant response rating (scale of 0 to 100 where 0 is no effect and 100 is complete control), Oat, Wild", "setting": "[2]; [14]", "result": 5}, {"measurement": "Oat, Wild plant response rating", "setting": "[2]; [15]", "result": 5}, {"measurement": "Plant response rating, Oat, Wild", "setting": "[2]; [16]", "result": 10}, {"measurement": "Plant response rating, Oat, Wild", "setting": "[2]; [17]", "result": 10}, {"measurement": "Pigweed plant response rating", "setting": "[3]; 62 g ai/ha, scale 0 to 100", "result": 50}, {"measurement": "Plant response rating, Pigweed", "setting": "[3]; [18]", "result": 75}, {"measurement": "Plant response rating, Pigweed", "setting": "[3]; [19]", "result": 50}, {"measurement": "Morningglory plant response rating (0 to 100 scale)", "setting": "[4]", "result": 30}, {"measurement": "Plant response rating, Soybean", "setting": "[5]; [18]", "result": 60}, {"measurement": "Soybean plant response rating", "setting": "[5]; [19]", "result": 70}, {"measurement": "Pigweed plant response rating", "setting": "[6]; [20]", "result": 100}, {"measurement": "Pigweed plant response rating", "setting": "[6]; [21]", "result": 100}, {"measurement": "Plant response rating, Wheat", "setting": "[7]; [22]", "result": 0}, {"measurement": "Wheat plant response rating", "setting": "[7]; [23]", "result": 0}, {"measurement": "Plant response rating, Wheat", "setting": "[7]; [24]", "result": 10}, {"measurement": "Wheat plant response rating", "setting": "[7]; [25]", "result": 60}, {"measurement": "Plant response rating, Ryegrass, Italian", "setting": "[8]; [22]", "result": 10}, {"measurement": "Ryegrass, Italian plant response rating", "setting": "[8]; [23]", "result": 60}, {"measurement": "Plant response rating, Ryegrass, Italian", "setting": "[8]; [24]", "result": 50}, {"measurement": "Ryegrass, Italian plant response rating", "setting": "[8]; [25]", "result": 30}, {"measurement": "Plant response rating (scale of 0 to 100 where 0 is no effect and 100 is complete control), Lambsquarters", "setting": "[9]; [14]", "result": 35}, {"measurement": "Lambsquarters plant response rating", "setting": "[9]; [15]", "result": 40}, {"measurement": "Plant response rating, Lambsquarters", "setting": "[9]; [16]", "result": 60}, {"measurement": "Plant response rating, Lambsquarters", "setting": "[9]; [17]", "result": 45}, {"measurement": "Plant response rating, Ryegrass, Italian", "setting": "[10]; [18]", "result": 5}, {"measurement": "Plant response rating, Ryegrass, Italian", "setting": "[10]; [19]", "result": 5}, {"measurement": "Plant response rating, Ragweed", "setting": "[11]; [22]", "result": 85}, {"measurement": "Ragweed plant response rating", "setting": "[11]; [23]", "result": 85}, {"measurement": "Plant response rating, Ragweed", "setting": "[11]; [24]", "result": 95}, {"measurement": "Ragweed plant response rating", "setting": "[11]; [25]", "result": 100}, {"measurement": "Crabgrass, Large plant response rating", "setting": "[12]; [20]", "result": 90}, {"measurement": "Crabgrass, Large plant response rating", "setting": "[12]; [21]", "result": 100}, {"measurement": "Corn plant response rating (0 to 100 scale)", "setting": "[13]; 125 g ai/ha, visual injury approx. 10 days after treatment", "result": 30}, {"measurement": "Corn plant response rating", "setting": "[13]; 500 g ai/ha, visual injury after approx. 10 days, 0 to 100 scale (0 no effect, 100 complete control)", "result": 90}]}]}
